From patent US7235679B2, “Crystals of a vitamin D derivative and a method for the preparation thereof” (Chugai Seiyaku Kabushiki Kaisha, priority 1996, dated 2007)

Legend:
Assay type in all cases: physicochemical
[1] = Stability test of ED-71: purity measurement using reverse phase HPLC; conditions: for Purity Measurement Using Reverse Phase HPLC, ED-71 peak / Purity Measurement Using Reverse Phase HPLC, Other peaks / Purity Measurement Using Reverse Phase HPLC, Pre Form peak: 265 nm
Method: (§1) Amorphous and crystalline ED-71 compounds were tested for stability at 10, 25 and […]. To estimate the stability, HPLC quantitative assay and absorbance and purity measurements were utilized. The purity was expressed as peak area ratio in percentage in HPLC (% P.A.R.). The test was carried out by using the following procedures:
(§2) About 2 mg portions of each of the amorphous and crystalline samples are precisely weighed into transparent 10 ml test tubes each having screw cap, individually.
(§3) The test tubes are purged with argon using a vacuum desiccator and a glove box. This purging procedure is not applied to the test tubes indicated as “1 M (air)” in the tables below.
(§4) The test tubes in groups are fixed in thermostatic baths which are respectively controlled at the above temperatures and allowed to stand in the dark. After one (1 W) or two (2 W) weeks or one month (1 M), the test tubes are removed from the baths and subjected to the following assay and measurements:
HPLC is carried out using 25 μl of the sample solution as prepared in “HPLC quantitative assay” above. • HPLC conditions used: • Column: Inertsil ODS-2 (5×250 mm) • Mobile phase: acetonitrile/water mixture (55/45) • Flow rate: 1 ml/min • Detection: at UV 265 and 220 nm.

[2] = Stability test of ED-71: absorbance measurement at 265 nm (E 1%); conditions: absorbance at 265 nm
Method: as §1, §2, §3, §4
1 ml of the sample solution as prepared in “HPLC quantitative assay” above is diluted with absolute ethanol to give a whole volume of 10 ml and this diluted solution is then measured for the absorbance at 265 nm using a ultraviolet spectrophotometer. The absorbance is converted into E 1% value which is derived from Lambert-Beer Law and the conversion is made according to the following equation: E1%=A/cb wherein A is absorbance, c is concentration in g/100 ml and b is length of optical path in cm across the test solution, which is commonly 1. (4) Purity Measurement

[3] = Stability test of ED-71: purity measurement using normal phase HPLC; conditions: 265 nm
Method: as §1, §2, §3, §4
1 ml of the sample solution as prepared in “HPLC quantitative assay” above is dried in vacuo to remove the solvent (absolute ethanol). The residue is dissolved in 1 ml of methylene chloride. HPLC assay is carried out using 25 μl of this solution. • HPLC conditions used: • Column: YMC A-004SIL (4.6×300 mm) • Mobile phase: methylene chloride/methanol mixture (96/4) • Flow rate: 1.8 ml/min • Detection: at UV 265 nm.

C=C1/C(=C\C=C2/CCC[C@]3(C)[C@@H]([C@H](C)CCCC(C)(C)O)CC[C@@H]23)C[C@@H](O)[C@@H](OCCCO)[C@@H]1O [Crys., 1α,25-dihydroxy-2β-(3-hydroxypropoxy)vitamin D3]
220 nm (%), ED-71 peak ([1]; 10° C., 1 M (air), dark): 97.09% | 220 nm (%), Other peaks ([1]; 10° C., 1 M (air), dark): 1.82% | 220 nm (%), Pre Form peak ([1]; 10° C., 1 M (air), dark): 1.09% | 220 nm (%), ED-71 peak ([1]; 10° C., 1 M, argon, dark): 97.44% | 220 nm (%), Other peaks ([1]; 10° C., 1 M, argon, dark): 1.51% | 220 nm (%), Pre Form peak ([1]; 10° C., 1 M, argon, dark): 1.05% | 220 nm (%), ED-71 peak ([1]; 10° C., 2 W, argon, dark): 97.91% | 220 nm (%), Other peaks ([1]; 10° C., 2 W, argon, dark): 1.09% | 220 nm (%), Pre Form peak ([1]; 10° C., 2 W, argon, dark): 1.01% | 220 nm (%), ED-71 peak ([1]; 10° C., time 0): 97.44% | 220 nm (%), Other peaks ([1]; 10° C., time 0): 2.04% | 220 nm (%), Pre Form peak ([1]; 10° C., time 0): 0.52% | 220 nm (%), ED-71 peak ([1]; 25° C., 1 W, argon, dark): 98.17% | 220 nm (%), Other peaks ([1]; 25° C., 1 W, argon, dark): 1.40% | 220 nm (%), Pre Form peak ([1]; 25° C., 1 W, argon, dark): 0.44% | 220 nm (%), ED-71 peak ([1]; 25° C., 2 W, argon, dark): 97.56% | 220 nm (%), Other peaks ([1]; 25° C., 2 W, argon, dark): 1.43% | 220 nm (%), Pre Form peak ([1]; 25° C., 2 W, argon, dark): 1.01% | 220 nm (%), ED-71 peak ([1]; 25° C., time 0): 97.44% | 220 nm (%), Other peaks ([1]; 25° C., time 0): 2.04% | 220 nm (%), Pre Form peak ([1]; 25° C., time 0): 0.52% | 220 nm (%), ED-71 peak ([1]; 40° C., 1 W, argon, dark): 98.18% | 220 nm (%), Other peaks ([1]; 40° C., 1 W, argon, dark): 1.35% | 220 nm (%), Pre Form peak ([1]; 40° C., 1 W, argon, dark): 0.47% | 220 nm (%), ED-71 peak ([1]; 40° C., 2 W, argon, dark): 97.65% | 220 nm (%), Other peaks ([1]; 40° C., 2 W, argon, dark): 1.33% | 220 nm (%), Pre Form peak ([1]; 40° C., 2 W, argon, dark): 1.02% | 220 nm (%), ED-71 peak ([1]; 40° C., time 0): 97.44% | 220 nm (%), Other peaks ([1]; 40° C., time 0): 2.04% | 220 nm (%), Pre Form peak ([1]; 40° C., time 0): 0.52% | Purity Measurement Using Reverse Phase HPLC, ED-71 peak ([1]; 10° C., 1 M (air), dark): 98.72 % P.A.R | Purity Measurement Using Reverse Phase HPLC, Other peaks ([1]; 10° C., 1 M (air), dark): 0.42 % P.A.R | Purity Measurement Using Reverse Phase HPLC, Pre Form peak ([1]; 10° C., 1 M (air), dark): 0.86 % P.A.R | Purity Measurement Using Reverse Phase HPLC, ED-71 peak ([1]; 10° C., 1 M, argon, dark): 98.77 % P.A.R | Purity Measurement Using Reverse Phase HPLC, Other peaks ([1]; 10° C., 1 M, argon, dark): 0.37 % P.A.R | Purity Measurement Using Reverse Phase HPLC, Pre Form peak ([1]; 10° C., 1 M, argon, dark): 0.86 % P.A.R | Purity Measurement Using Reverse Phase HPLC, ED-71 peak ([1]; 10° C., 2 W, argon, dark): 98.84 % P.A.R | Purity Measurement Using Reverse Phase HPLC, Other peaks ([1]; 10° C., 2 W, argon, dark): 0.32 % P.A.R | Purity Measurement Using Reverse Phase HPLC, Pre Form peak ([1]; 10° C., 2 W, argon, dark): 0.83 % P.A.R | Purity Measurement Using Reverse Phase HPLC, ED-71 peak ([1]; 10° C., time 0): 99.04 % P.A.R | Purity Measurement Using Reverse Phase HPLC, Other peaks ([1]; 10° C., time 0): 0.60 % P.A.R | Purity Measurement Using Reverse Phase HPLC, Pre Form peak ([1]; 10° C., time 0): 0.36 % P.A.R | Purity Measurement Using Reverse Phase HPLC, ED-71 peak ([1]; 25° C., 1 W, argon, dark): 99.35 % P.A.R | Purity Measurement Using Reverse Phase HPLC, Other peaks ([1]; 25° C., 1 W, argon, dark): 0.38 % P.A.R | Purity Measurement Using Reverse Phase HPLC, Pre Form peak ([1]; 25° C., 1 W, argon, dark): 0.28 % P.A.R | Purity Measurement Using Reverse Phase HPLC, ED-71 peak ([1]; 25° C., 2 W, argon, dark): 98.78 % P.A.R | Purity Measurement Using Reverse Phase HPLC, Other peaks ([1]; 25° C., 2 W, argon, dark): 0.37 % P.A.R | Purity Measurement Using Reverse Phase HPLC, Pre Form peak ([1]; 25° C., 2 W, argon, dark): 0.85 % P.A.R | Purity Measurement Using Reverse Phase HPLC, ED-71 peak ([1]; 25° C., time 0): 99.04 % P.A.R | Purity Measurement Using Reverse Phase HPLC, Other peaks ([1]; 25° C., time 0): 0.60 % P.A.R | Purity Measurement Using Reverse Phase HPLC, Pre Form peak ([1]; 25° C., time 0): 0.36 % P.A.R | Purity Measurement Using Reverse Phase HPLC, ED-71 peak ([1]; 40° C., 1 W, argon, dark): 99.40 % P.A.R | Purity Measurement Using Reverse Phase HPLC, Other peaks ([1]; 40° C., 1 W, argon, dark): 0.31 % P.A.R | Purity Measurement Using Reverse Phase HPLC, Pre Form peak ([1]; 40° C., 1 W, argon, dark): 0.29 % P.A.R | Purity Measurement Using Reverse Phase HPLC, ED-71 peak ([1]; 40° C., 2 W, argon, dark): 98.75 % P.A.R | Purity Measurement Using Reverse Phase HPLC, Other peaks ([1]; 40° C., 2 W, argon, dark): 0.40 % P.A.R | Purity Measurement Using Reverse Phase HPLC, Pre Form peak ([1]; 40° C., 2 W, argon, dark): 0.85 % P.A.R | Purity Measurement Using Reverse Phase HPLC, ED-71 peak ([1]; 40° C., time 0): 99.04 % P.A.R | Purity Measurement Using Reverse Phase HPLC, Other peaks ([1]; 40° C., time 0): 0.60 % P.A.R | Purity Measurement Using Reverse Phase HPLC, Pre Form peak ([1]; 40° C., time 0): 0.36 % P.A.R | E 1% ([2]; 10° C., 1 M (air), dark): 341.7 | E 1% ([2]; 10° C., 1 M, argon, dark): 342.7 | E 1% ([2]; 10° C., 2 W, argon, dark): 343.8 | E 1% ([2]; 10° C., time 0): 359.2 | E 1% ([2]; 25° C., 1 W, argon, dark): 349.5 | E 1% ([2]; 25° C., 2 W, argon, dark): 341.6 | E 1% ([2]; 25° C., time 0): 359.2 | E 1% ([2]; 40° C., 1 W, argon, dark): 349.8 | E 1% ([2]; 40° C., 2 W, argon, dark): 348.7 | E 1% ([2]; 40° C., time 0): 359.2 | Purity Measurement Using Normal Phase HPLC, ED-71 peak ([3]; 10° C., 1 M (air), dark): 98.88 % P.A.R | Purity Measurement Using Normal Phase HPLC, Other peaks ([3]; 10° C., 1 M (air), dark): 0.46 % P.A.R | Purity Measurement Using Normal Phase HPLC, Pre Form peak ([3]; 10° C., 1 M (air), dark): 0.66 % P.A.R | Purity Measurement Using Normal Phase HPLC, ED-71 peak ([3]; 10° C., 1 M, argon, dark): 98.91 % P.A.R | Purity Measurement Using Normal Phase HPLC, Other peaks ([3]; 10° C., 1 M, argon, dark): 0.44 % P.A.R | Purity Measurement Using Normal Phase HPLC, Pre Form peak ([3]; 10° C., 1 M, argon, dark): 0.65 % P.A.R | Purity Measurement Using Normal Phase HPLC, ED-71 peak ([3]; 10° C., 2 W, argon, dark): 99.06 % P.A.R | Purity Measurement Using Normal Phase HPLC, Other peaks ([3]; 10° C., 2 W, argon, dark): 0.27 % P.A.R | Purity Measurement Using Normal Phase HPLC, Pre Form peak ([3]; 10° C., 2 W, argon, dark): 0.66 % P.A.R | Purity Measurement Using Normal Phase HPLC, ED-71 peak ([3]; 10° C., time 0): 99.15 % P.A.R | Purity Measurement Using Normal Phase HPLC, Other peaks ([3]; 10° C., time 0): 0.63 % P.A.R | Purity Measurement Using Normal Phase HPLC, Pre Form peak ([3]; 10° C., time 0): 0.21 % P.A.R | Purity Measurement Using Normal Phase HPLC, ED-71 peak ([3]; 25° C., 1 W, argon, dark): 99.56 % P.A.R | Purity Measurement Using Normal Phase HPLC, Other peaks ([3]; 25° C., 1 W, argon, dark): 0.30 % P.A.R | Purity Measurement Using Normal Phase HPLC, Pre Form peak ([3]; 25° C., 1 W, argon, dark): 0.14 % P.A.R | Purity Measurement Using Normal Phase HPLC, ED-71 peak ([3]; 25° C., 2 W, argon, dark): 98.95 % P.A.R | Purity Measurement Using Normal Phase HPLC, Other peaks ([3]; 25° C., 2 W, argon, dark): 0.38 % P.A.R | Purity Measurement Using Normal Phase HPLC, Pre Form peak ([3]; 25° C., 2 W, argon, dark): 0.67 % P.A.R | Purity Measurement Using Normal Phase HPLC, ED-71 peak ([3]; 25° C., time 0): 99.15 % P.A.R | Purity Measurement Using Normal Phase HPLC, Other peaks ([3]; 25° C., time 0): 0.63 % P.A.R | Purity Measurement Using Normal Phase HPLC, Pre Form peak ([3]; 25° C., time 0): 0.21 % P.A.R | Purity Measurement Using Normal Phase HPLC, ED-71 peak ([3]; 40° C., 1 W, argon, dark): 99.55 % P.A.R | Purity Measurement Using Normal Phase HPLC, Other peaks ([3]; 40° C., 1 W, argon, dark): 0.31 % P.A.R | Purity Measurement Using Normal Phase HPLC, Pre Form peak ([3]; 40° C., 1 W, argon, dark): 0.14 % P.A.R | Purity Measurement Using Normal Phase HPLC, ED-71 peak ([3]; 40° C., 2 W, argon, dark): 98.92 % P.A.R | Purity Measurement Using Normal Phase HPLC, Other peaks ([3]; 40° C., 2 W, argon, dark): 0.41 % P.A.R | Purity Measurement Using Normal Phase HPLC, Pre Form peak ([3]; 40° C., 2 W, argon, dark): 0.67 % P.A.R | Purity Measurement Using Normal Phase HPLC, ED-71 peak ([3]; 40° C., time 0): 99.15 % P.A.R | Purity Measurement Using Normal Phase HPLC, Other peaks ([3]; 40° C., time 0): 0.63 % P.A.R | Purity Measurement Using Normal Phase HPLC, Pre Form peak ([3]; 40° C., time 0): 0.21 % P.A.R
